Source: paper PMC11855827, “High-Throughput Screening of Five Compound Libraries for Anthelmintic Activity and Toxicity Leads to the Discovery of Two Flavonoid Compounds” (International Journal of Molecular Sciences, 2025)
Counter-ions that a name gives are not always drawn. Like-named read-outs stand apart in the source and are kept apart here.

System: C. elegans
Assay: microbe, parasite or virus in culture
Conditions: Caenorhabditis elegans
[1] = 0 h, read-out: Percentage of motility inhibition 0 h, Table S2, C. elegans SS assay, 110 μM, 0 h, averages of 4 data points
[2] = 24 h, read-out: Percentage of motility inhibition 24 h, Table S2, C. elegans SS assay, 110 μM, 24 h, averages of 4 data points
[3] = 0 h, read-out: Percentage of motility inhibition 0 h
[4] = 24 h, read-out: Percentage of motility inhibition 24 h

C[C@H]1[C@H](C)CC[C@]2(C(=O)O)CC[C@]3(C)C(=CC[C@@H]4[C@@]5(C)C[C@@H](O)[C@H](O)C(C)(C)[C@@H]5CC[C@]43C)[C@H]12 [Corosolic acid]
inhibition at 110 µM [1]: 23% | inhibition at 110 µM [2]: 34%

O=C(O)c1cccnc1 [Niacin]
inhibition at 110 µM [1]: 0% | inhibition at 110 µM [2]: 14%

CC[C@@H]1CN2CC[C@]3(C(=O)Nc4ccccc43)[C@@H]2C[C@@H]1/C(=C\OC)C(=O)OC [Corynoxine B]
inhibition at 110 µM [1]: 5% | inhibition at 110 µM [2]: 20%

CC(C)c1ccc2c(c1)CC[C@H]1[C@](C)(C(=O)O)CCC[C@]21C [Dehydroabietic acid]
inhibition at 110 µM [1]: 4% | inhibition at 110 µM [2]: 17%

COC(=O)C[C@](O)(CCC(C)(C)O)C(=O)O[C@@H]1C(OC)=C[C@]23CCCN2CCc2cc4c(cc2[C@H]13)OCO4 [Harringtonine]
inhibition at 110 µM [2]: 0%

O=C(/C=C/c1ccc(O)cc1)c1ccc(O)cc1O [Isoliquiritigenin]
inhibition at 110 µM [1]: 16% | inhibition at 110 µM [2]: 4%

CCS(=O)(=O)CCn1c([N+](=O)[O-])cnc1C [Tinidazole]
inhibition at 110 µM [1]: 25% | inhibition at 110 µM [2]: 8%

CC(C)=CCC[C@](C)(O)[C@H]1CC[C@]2(C)[C@@H]1[C@H](O)C[C@@H]1[C@@]3(C)CC[C@H](O)C(C)(C)[C@@H]3[C@@H](O[C@@H]3O[C@H](CO)[C@@H](O)[C@H](O)[C@H]3O[C@@H]3O[C@@H](C)[C@H](O)[C@@H](O)[C@H]3O)C[C@]12C [Ginsenoside Rg2]
inhibition at 110 µM [1]: 8% | inhibition at 110 µM [2]: 0%

O=C(O)CNCC(=O)O [Iminodiacetic acid]
inhibition at 110 µM [1]: 15% | inhibition at 110 µM [2]: 0%

C[C@@H]1CC[C@@]2(NC1)O[C@H]1C[C@H]3[C@@H]4CC=C5C[C@@H](O)CC[C@]5(C)[C@H]4CC[C@]3(C)[C@H]1[C@@H]2C [Solasodine]
inhibition at 110 µM [1]: 12% | inhibition at 110 µM [2]: 20%

CC(C)N1CCN(c2ccc(OCC3COC(Cn4cncn4)(c4ccc(Cl)cc4Cl)O3)cc2)CC1 (centres unmarked) [Terconazole]
inhibition at 110 µM [1]: 26% | inhibition at 110 µM [2]: 3%

O=c1cc(-c2ccc(O)cc2)oc2cc(O)c(O)c(O)c12 [Scutellarein]
inhibition at 110 µM [3]: 49% | inhibition at 110 µM [4]: 3%

CC(C)=CCC[C@](C)(O[C@@H]1O[C@H](CO[C@@H]2O[C@H](CO)[C@@H](O)[C@H](O)[C@H]2O)[C@@H](O)[C@H](O)[C@H]1O)[C@H]1CC[C@]2(C)[C@@H]1[C@H](O)C[C@@H]1[C@@]3(C)CC[C@H](O[C@@H]4O[C@H](CO)[C@@H](O)[C@H](O)[C@H]4O)C(C)(C)[C@@H]3CC[C@]12C [Gypenoside XVII]
inhibition at 110 µM [1]: 4% | inhibition at 110 µM [2]: 4%

CC[C@@H](C(=O)[C@@H](C)[C@@H](O)[C@H](C)CCc1ccc(C)c(O)c1C(=O)O)[C@H]1O[C@](CC)([C@H]2CC[C@](O)(CC)[C@H](C)O2)C[C@@H]1C [Lasalocid]
inhibition at 110 µM [1]: 23% | inhibition at 110 µM [2]: 21%

COc1ccc(-c2cc(=O)c3c(OC)c(OC)c(OC)c(OC)c3o2)cc1 [Tangeretin]
inhibition at 110 µM [1]: 14% | inhibition at 110 µM [2]: 8%

Cc1cc(C)c(Nc2ccnc(Nc3ccc(C#N)cc3)n2)c(C)c1 [Dapivirine]
inhibition at 110 µM [1]: 44% | inhibition at 110 µM [2]: 4%

COc1ccc(-c2cc(=O)c3c(O)cc(O)cc3o2)cc1O [Diosmetin]
inhibition at 110 µM [3]: 13% | inhibition at 110 µM [4]: 0%

C[C@@H]1O[C@@H](OC[C@H]2O[C@@H](Oc3c(-c4ccc(O)c(O)c4)oc4cc(O)cc(O)c4c3=O)[C@H](O)[C@@H](O)[C@@H]2O)[C@H](O)[C@H](O)[C@H]1O [Rutin]
inhibition at 110 µM [1]: 4% | inhibition at 110 µM [2]: 0%

CC(C)=CCCC(C)CCO (centres unmarked) [Citronellol]
inhibition at 110 µM [1]: 15% | inhibition at 110 µM [2]: 28%

CC1=CC[C@@H](C(C)(C)O)CC1 [α-Terpineol]
inhibition at 110 µM [1]: 22% | inhibition at 110 µM [2]: 17%

C[C@@H]1[C@H](O)[C@@H](C)/C=C/C=C/C=C/C=C/C=C/C=C/C=C/[C@H](O[C@@H]2O[C@H](C)[C@@H](O)[C@H](N)[C@@H]2O)C[C@@H]2O[C@](O)(C[C@@H](O)C[C@@H](O)[C@H](O)CC[C@@H](O)C[C@@H](O)CC(=O)O[C@H]1C)C[C@H](O)[C@H]2C(=O)O [Amphotericin B]
inhibition at 110 µM [1]: 2% | inhibition at 110 µM [2]: 29%

C[C@H](CCC(=O)O)[C@H]1CC[C@H]2[C@@H]3C[C@H](O)[C@@H]4C[C@H](O)CC[C@]4(C)[C@H]3CC[C@]12C [Hyodeoxycholic acid]
inhibition at 110 µM [1]: 2% | inhibition at 110 µM [2]: 18%

COc1cc(O)c2c(=O)cc(-c3ccc(O)cc3)oc2c1 [Genkwanin]
inhibition at 110 µM [1]: 34% | inhibition at 110 µM [2]: 4%

CC(C)C12CCC(C)(CC1)O2 [1,4-Cineole]
inhibition at 110 µM [1]: 21% | inhibition at 110 µM [2]: 35%

O=c1cc(-c2ccc(O)cc2)oc2c([C@@H]3O[C@H](CO)[C@@H](O)[C@H](O)[C@H]3O)c(O)cc(O)c12 [Vitexin]
inhibition at 110 µM [1]: 39% | inhibition at 110 µM [2]: 0%

COC(=O)/C=C/C(=O)O [Monomethyl fumarate]
inhibition at 110 µM [1]: 0% | inhibition at 110 µM [2]: 15%

Nc1nc(=O)c2nc(CNc3ccc(C(=O)N[C@@H](CCC(=O)O)C(=O)O)cc3)cnc2[nH]1 [Folic acid]
inhibition at 110 µM [1]: 23% | inhibition at 110 µM [2]: 17%
